28 compounds from patent publication US20260022116A1, “IMIDAZOPYRIDINE COMPOUNDS, PREPARATION THEREOF AND THERAPEUTIC USES THEREOF” (SANOFI, priority 2022, published 2026) can be followed below.

Structures are written as SMILES. pIC50: −log10 of the molar value. Where a name gives a salt, the structure may show the parent alone.

The first assay addresses T1, ERK5 (Homo sapiens, UniProt Q13164). The assay is described as follows: cell-based.
Target sequence in this assay (Q13164 whole entry): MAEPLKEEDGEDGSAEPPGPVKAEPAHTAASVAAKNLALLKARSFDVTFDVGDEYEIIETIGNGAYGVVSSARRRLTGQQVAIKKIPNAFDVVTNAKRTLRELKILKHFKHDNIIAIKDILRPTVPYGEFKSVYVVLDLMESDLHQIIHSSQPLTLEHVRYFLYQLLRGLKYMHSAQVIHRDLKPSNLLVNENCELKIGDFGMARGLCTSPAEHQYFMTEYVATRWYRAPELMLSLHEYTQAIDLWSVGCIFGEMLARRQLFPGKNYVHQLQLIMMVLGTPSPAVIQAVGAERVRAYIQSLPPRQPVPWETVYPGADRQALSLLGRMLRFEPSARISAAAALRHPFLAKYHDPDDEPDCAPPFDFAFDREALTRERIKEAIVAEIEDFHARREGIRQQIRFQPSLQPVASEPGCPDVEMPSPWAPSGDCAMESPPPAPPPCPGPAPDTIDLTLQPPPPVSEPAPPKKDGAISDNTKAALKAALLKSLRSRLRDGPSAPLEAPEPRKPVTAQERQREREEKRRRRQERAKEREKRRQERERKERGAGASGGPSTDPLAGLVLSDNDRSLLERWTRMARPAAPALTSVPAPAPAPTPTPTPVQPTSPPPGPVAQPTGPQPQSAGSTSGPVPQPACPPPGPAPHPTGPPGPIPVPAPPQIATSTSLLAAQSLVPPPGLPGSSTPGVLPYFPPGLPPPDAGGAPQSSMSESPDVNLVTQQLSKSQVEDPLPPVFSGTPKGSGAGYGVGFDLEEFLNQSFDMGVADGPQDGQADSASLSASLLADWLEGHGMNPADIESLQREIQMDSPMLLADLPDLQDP
Procedure: (§1) Two assays were performed to assess the ERK5 inhibitory activity of compounds of the Examples, a cell-based assay and a cell-free biochemical assay.
The renal cancer cell line SN12C was transduced by a lentivirus pGreenFire1 MEF2 EF1 Neo (ref TR030VA-N) from SBI using standard infection protocol. pGreenFire1 MEF2 EF1 Neo allows the expression of luciferase gene under the control of minimal promoter with MEF2 transcriptional response elements. Cells harboring the reporter construct were selected by geneticin treatment. The selected cells were then transposed by a piggyback based plasmid pCM4007 allowing the expression of constitutively activated MEK5DD under control of TREG3 promoter, a doxycycline regulated promoter. Transposed cells were selected by puromycin treatment. Upon doxycycline treatment (1 μg/ml) MEK5DD was expressed. MEK5DD activates ERK5 that phosphorylates MEF2C protein. Activated MEF2C protein can bind to its transcriptional response elements. Then the luciferase is expressed. In a 96-well plate (96F nuncleon ref137101 thermofisher), 50,000 cells were inoculated in 142.5 μl of RPMI medium containing 10% fetal calf serum, 1% glutamine, and 1 μg/ml doxycycline. […] The luciferase activity was measured using the Kit Bright Glo Luminescent Cell Assay Cat E2610 (Promega) according to the manufacturer's protocol. Luminescence was determined using 0.2 second reading/well using a Tecan SPARK. IC50 values were calculated using XLFIT5 for Microsoft Excel using method 205.
In the case of `COC12CC(C(=O)N3CCC(c4ccnc5[nH]c(C6CCOCC6)nc45)CC3)(C1)C2` [Example 58, (3-Methoxy-1-bicyclo[1.1.1]pentanyl)-[4-(2-tetrahydropyran-4-yl-3H-imidazo[4,5-b]pyridin-7-yl)-1-piperidyl]methanone], the pIC50 (in general, −log10 of the IC50, conventionally taken in molar units) was below 5.00.

For `O=C(c1ccc(OC(F)(F)F)cc1)N1CCC(c2ccnc3[nH]c(-c4csc(-c5cc(Cl)ccc5O)n4)nc23)CC1` [Example 135, [4-[2-[2-(5-chloro-2-hydroxy-phenyl)thiazol-4-yl]-3H-imidazo[4,5-b]pyridin-7-yl]-1-piperidyl]-[4-(trifluoromethoxy)phenyl]methanone], the negative logarithm of the IC50 (pIC50) is below 5.00.

`Cc1cc2ncc(C(=O)N3CCC(c4ccnc5[nH]c(C6CCOCC6)nc45)CC3)c(N)n2n1` [Example 109, (7-amino-2-methyl-pyrazolo[1,5-a]pyrimidin-6-yl)-[4-(2-tetrahydropyran-4-yl-3H-imidazo[4,5-b]pyridin-7-yl)-1-piperidyl]methanone] had a negative-log IC50 (pIC50) of 5.10.

`O=C(c1ccc(OC(F)(F)F)cc1)N1CCC(c2ccnc3[nH]c(-c4cnc5ccc(C(F)(F)F)cc5c4O)nc23)CC1` [Example 230, [4-[2-[4-hydroxy-6-(trifluoromethyl)-3-quinolyl]-3H-imidazo[4,5-b]pyridin-7-yl]-1-piperidyl]-[4-(trifluoromethoxy)phenyl]methanone] gave a pIC50 of 5.19.

In the case of `O=C1CC(C(=O)N2CCC(c3ccnc4[nH]c(C5CCOCC5)nc34)CC2)CN1Cc1ccccc1Cl` (stereo not shown) [Example 110, 1-[(2-chlorophenyl)methyl]-4-[4-(2-tetrahydropyran-4-yl-3H-imidazo[4,5-b]pyridin-7-yl)piperidine-1-carbonyl]pyrrolidin-2-one], the negative-log IC50 (pIC50) is below 5.00.

The compound `O=C(c1cnn2c1NCCC2C(F)(F)F)N1CCC(c2ccnc3[nH]c(C4CCOCC4)nc23)CC1` (stereo not shown) [Example 79, [4-(2-tetrahydropyran-4-yl-3H-imidazo[4,5-b]pyridin-7-yl)-1-piperidyl]-[7-(trifluoromethyl)-4,5,6,7-tetrahydropyrazolo[1,5-a]pyrimidin-3-yl]methanone] gave a pIC50 of 5.10.

Compound `O=C(c1nn(-c2ccccc2C(F)(F)F)cc1O)N1CCC(c2ccnc3[nH]c(C4CCOCC4)nc23)CC1` [Example 89, [4-hydroxy-1-[2-(trifluoromethyl)phenyl]pyrazol-3-yl]-[4-(2-tetrahydropyran-4-yl-3H-imidazo[4,5-b]pyridin-7-yl)-1-piperidyl]methanone] showed a pIC50 of 5.50.

As for `O=S(=O)(c1ccc(OC(F)(F)F)cc1)N1CCC(c2ccnc3[nH]c(C4CCOCC4)nc23)CC1` [Example 165, 2-tetrahydropyran-4-yl-7-[1-[4-(trifluoromethoxy)phenyl]sulfonyl-4-piperidyl]-3H-imidazo[4,5-b]pyridine], the pIC50 is below 5.00.

For the compound `CC(C)(C)OC(=O)Nc1cc(OC(F)(F)F)ccc1C(=O)N1CCC(c2ccnc3[nH]c(C4CCOCC4)nc23)CC1` [Example 190, tert-butyl N-[2-[4-(2-tetrahydropyran-4-yl-3H-imidazo[4,5-b]pyridin-7-yl)piperidine-1-carbonyl]-5-(trifluoromethoxy)phenyl]carbamate], the pIC50 is 6.01.

In turn, `O=C(C1CC(=O)N(c2ccc(F)c(F)c2)C1)N1CCC(c2ccnc3[nH]c(C4CCOCC4)nc23)CC1` (stereo not shown) [Example 107, 1-(3,4-difluorophenyl)-4-[4-(2-tetrahydropyran-4-yl-3H-imidazo[4,5-b]pyridin-7-yl)piperidine-1-carbonyl]pyrrolidin-2-one] had a negative logarithm of the IC50 (pIC50) below 5.00.

`CCn1cc(N)c(C(=O)N2CCC(c3ccnc4[nH]c(C5CCOCC5)nc34)CC2)n1` [Example 115, (4-amino-1-ethyl-pyrazol-3-yl)-[4-(2-tetrahydropyran-4-yl-3H-imidazo[4,5-b]pyridin-7-yl)-1-piperidyl]methanone] gave a pIC50 below 5.00.

As for `O=C(C1CC12C(=O)Nc1ccccc12)N1CCC(c2ccnc3[nH]c(C4CCOCC4)nc23)CC1` (stereo not shown) [Example 117, 2-[4-(2-tetrahydropyran-4-yl-3H-imidazo[4,5-b]pyridin-7-yl)piperidine-1-carbonyl]spiro[cyclopropane-1,3′-indoline]-2′-one], the pIC50 is below 5.00.

In the case of `CO[C@H]1CC[C@H](c2nc3c(C4CCN(C(=O)c5ccc(OC(F)(F)F)cc5)CC4)ccnc3[nH]2)CC1` [Example 153, (trans)-[4-(trifluoromethoxy)phenyl]-[4-[2-(4-methoxycyclohexyl)-3H-imidazo[4,5-b]pyridin-7-yl]-1-piperidyl]methanone;hydrochloride], the pIC50 is 6.71.

`Nc1c(C(=O)N2CCC(c3ccnc4[nH]c(C5CCOCC5)nc34)CC2)sc(C(F)(F)F)c1-c1ccccc1` [Example 92, [3-amino-4-phenyl-5-(trifluoromethyl)-2-thienyl]-[4-(2-tetrahydropyran-4-yl-3H-imidazo[4,5-b]pyridin-7-yl)-1-piperidyl]methanone] showed a pIC50 of 5.65.

In turn, `Nc1cc(OC(F)(F)F)ccc1C(=O)N1CCC(c2ccnc3[nH]c(C4CCOC4)nc23)CC1` (single isomer, unassigned) [Example 186, [2-amino-4-(trifluoromethoxy)phenyl]-[4-[2-[tetrahydrofuran-3-yl]-3H-imidazo[4,5-b]pyridin-7-yl]-1-piperidyl]methanone] showed a pIC50 of 7.57.

Compound `O=C(c1n[nH]c2ccccc12)N1CCC(c2ccnc3[nH]c(C4CCOCC4)nc23)CC1` [Example 78, 1H-indazol-3-yl-[4-(2-tetrahydropyran-4-yl-3H-imidazo[4,5-b]pyridin-7-yl)-1-piperidyl]methanone] gave a negative logarithm of the IC50 (pIC50) of 5.44.

The compound `O=C(c1cccc(N2CCCS2(=O)=O)c1)N1CCC(c2ccnc3[nH]c(C4CCOCC4)nc23)CC1` [Example 85, [3-(1,1-dioxo-1,2-thiazolidin-2-yl)phenyl]-[4-(2-tetrahydropyran-4-yl-3H-imidazo[4,5-b]pyridin-7-yl)-1-piperidyl]methanone] showed a pIC50 below 5.00.

In turn, `CCn1c(=O)c(=O)[nH]c2cc(-c3nc4c(C5CCN(C(=O)c6ccc(OC(F)(F)F)cc6)CC5)ccnc4[nH]3)ccc21` [Example 139, 1-ethyl-3-hydroxy-6-[7-[1-[4-(trifluoromethoxy)benzoyl]-4-piperidyl]-3H-imidazo[4,5-b]pyridin-2-yl]quinoxalin-2-one] showed a pIC50 of 5.49.

For the compound `O=C(C1CC(=O)N(c2ccc(F)cc2)C1)N1CCC(c2ccnc3[nH]c(C4CCOCC4)nc23)CC1` (stereo not shown) [Example 111, 1-(4-fluorophenyl)-4-[4-(2-tetrahydropyran-4-yl-3H-imidazo[4,5-b]pyridin-7-yl)piperidine-1-carbonyl]pyrrolidin-2-one], the pIC50 is below 5.00.

`Nc1cc(OC(F)(F)F)ccc1C(=O)N1CCC(c2ccnc3[nH]c(C4CCOC4)nc23)CC1` (single isomer, unassigned) [Example 187, [2-amino-4-(trifluoromethoxy)phenyl]-[4-[2-[tetrahydrofuran-3-yl]-3H-imidazo[4,5-b]pyridin-7-yl]-1-piperidyl]methanone] showed a pIC50 of 7.39.

The compound `CC(Oc1ccc(C(F)(F)F)cc1Cl)C(=O)N1CCC(c2ccnc3[nH]c(C4CCOCC4)nc23)CC1` (stereo not shown) [Example 87, 2-[2-chloro-4-(trifluoromethyl)phenoxy]-1-[4-(2-tetrahydropyran-4-yl-3H-imidazo[4,5-b]pyridin-7-yl)-1-piperidyl]propan-1-one] had a pIC50 below 5.00.

As to `Nc1cc(OC(F)(F)F)ccc1C(=O)N1CCC(c2ccnc3[nH]c(C4CNCC(F)(F)C4)nc23)CC1` (single isomer, unassigned) [Example 162, [2-amino-4-(trifluoromethoxy)phenyl]-[4-[2-[5,5-difluoro-3-piperidyl]-3H-imidazo[4,5-b]pyridin-7-yl]-1-piperidyl]methanone], the pIC50 is 6.58.

The target in a further assay is T1, ERK5. The assay is described as follows: biochemical.
Target sequence in this assay (Q13164 55-347 limits assumed): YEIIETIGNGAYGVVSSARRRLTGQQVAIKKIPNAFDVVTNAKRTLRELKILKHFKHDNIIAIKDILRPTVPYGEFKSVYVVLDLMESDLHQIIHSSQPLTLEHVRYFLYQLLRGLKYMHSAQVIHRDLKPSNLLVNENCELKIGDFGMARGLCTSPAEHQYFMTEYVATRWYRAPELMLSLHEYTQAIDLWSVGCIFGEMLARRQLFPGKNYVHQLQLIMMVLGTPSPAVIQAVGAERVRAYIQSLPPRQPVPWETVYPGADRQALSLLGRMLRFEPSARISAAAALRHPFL
Procedure: as §1
An assay was performed to measure the capacity of each compound to inhibit ERK5 enzymatic activity. Compound potency was evaluated by Time-Resolved Forster Resonance Energy Transfer (FRET system). […] A mixture of 1 mM ATP and 1 μM biotinylated synthetic peptide was added (Biosyntan GmbH). This synthetic peptide represents amino acids 30-52 of Eukaryotic translation initiation factor 4E-binding protein 1 (see, e.g., the sequence under accession No. NP_004086.1) biotinylated at the N-terminus.
Compound `Nc1cc(S(F)(F)(F)(F)F)ccc1C(=O)N1CCC(c2c(F)cnc3[nH]c(C4CCCO4)nc23)CC1` (racemic) [Example 383, (rac)-[2-amino-4-(pentafluoro-λ^6-sulfanyl)phenyl]-[4-(6-fluoro-2-tetrahydrofuran-2-yl-3H-imidazo[4,5-b]pyridin-7-yl)-1-piperidyl]methanone] gave a negative-log IC50 (pIC50) of 6.41.

`O=C(c1ccc(OC(F)(F)F)cc1)N1CCC(c2c(F)cnc3[nH]c(C4CCC5(COC5)N(C(=O)O)C4)nc23)CC1` (racemic) [Example 461, (rac)-7-[6-fluoro-7-[1-[4-(trifluoromethoxy)benzoyl]-4-piperidyl]-3H-imidazo[4,5-b]pyridin-2-yl]-2-oxa-5-azaspiro[3.5]nonane-5-carboxylic acid]: the pIC50 was 6.61.

In the case of `O=C(c1ccc(S(F)(F)(F)(F)F)cc1)N1CCC(c2c(F)cnc3[nH]c(N4CCOCC4)nc23)CC1` [Example 449], the pIC50 was 6.55.

In the case of `O=C(c1ccc(S(F)(F)(F)(F)F)cc1)N1CCC(c2c(F)cnc3[nH]c([C@H]4C[C@@H](O)C4)nc23)CC1` [Example 446, (cis)-[4-[6-fluoro-2-(3-hydroxycyclobutyl)-3H-imidazo[4,5-b]pyridin-7-yl]-1-piperidyl]-[4-(pentafluoro-λ^6-sulfanyl)phenyl]methanone], the pIC50 is 6.31.

Take `O=C(c1ccc(S(F)(F)(F)(F)F)cc1)N1CCC(c2c(F)cnc3[nH]c([C@H]4C[C@H](O)C4)nc23)CC1` [Example 448, (trans)-[4-[6-fluoro-2-(3-hydroxycyclobutyl)-3H-imidazo[4,5-b]pyridin-7-yl]-1-piperidyl]-[4-(pentafluoro-λ^6-sulfanyl)phenyl]methanone]: the pIC50 is 6.76.

`O=C(c1ccc(S(F)(F)(F)(F)F)cc1)N1CCC(c2c(F)cnc3[nH]c(C4CCN(C5CC5)CC4)nc23)CC1` [Example 431, [4-[2-(1-cyclopropyl-4-piperidyl)-6-fluoro-3H-imidazo[4,5-b]pyridin-7-yl]-1-piperidyl]-[4-(pentafluoro-λ^6-sulfanyl)phenyl]methanone] showed a pIC50 of 6.27.
